The values below come from paper PMC11233931, “Remodeling tumor‐associated macrophage for anti‐cancer effects by rational design of irreversible inhibition of mitogen‐activated protein kinase‐activated protein kinase 2” (MedComm, 2024).

Each structure is given as a SMILES string.

One may read the inhibition as the change of the read-out against control, counted positive when it falls.

What all share (assay): Eurofins kinase selectivity profile against 380 other human recombinant kinases (Table S2)
What all share (assay type): biochemical

Assay [1] deals with T1, 380 human recombinant protein kinases (Homo sapiens, UniProt Q9UEE5).
T1 construct: purchased Eurofins (Celle Lévescault)
T1 sequence (Q9UEE5 1-414): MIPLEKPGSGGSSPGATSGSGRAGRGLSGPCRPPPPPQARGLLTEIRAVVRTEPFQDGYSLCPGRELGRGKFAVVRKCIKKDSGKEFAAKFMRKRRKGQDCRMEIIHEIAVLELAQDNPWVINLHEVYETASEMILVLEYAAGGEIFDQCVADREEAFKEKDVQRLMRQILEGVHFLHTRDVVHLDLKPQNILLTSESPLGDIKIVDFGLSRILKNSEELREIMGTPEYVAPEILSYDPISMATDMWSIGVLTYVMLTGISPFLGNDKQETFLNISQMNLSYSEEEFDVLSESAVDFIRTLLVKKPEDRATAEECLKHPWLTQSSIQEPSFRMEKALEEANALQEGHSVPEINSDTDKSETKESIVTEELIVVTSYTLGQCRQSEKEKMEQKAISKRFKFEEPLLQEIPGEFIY
To be noted: DRAK1(h), read-out: Inhibition rate. An outline of the steps:
(§1)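 Selectivity panel of 380 human recombinant protein kinases, screened by Eurofins at a range of concentrations.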

Assay [2] deals with T2, 380 human recombinant protein kinases (Homo sapiens, UniProt O00238).
T2 construct: purchased Eurofins (Celle Lévescault)
To be noted: ALK6(h), read-out: Inhibition rate. An outline of the steps: as §1

Assay [3] concerns the target T3, 380 human recombinant protein kinases (Homo sapiens, UniProt P51956).
T3 construct: purchased Eurofins (Celle Lévescault)
T3 sequence (P51956 1-506): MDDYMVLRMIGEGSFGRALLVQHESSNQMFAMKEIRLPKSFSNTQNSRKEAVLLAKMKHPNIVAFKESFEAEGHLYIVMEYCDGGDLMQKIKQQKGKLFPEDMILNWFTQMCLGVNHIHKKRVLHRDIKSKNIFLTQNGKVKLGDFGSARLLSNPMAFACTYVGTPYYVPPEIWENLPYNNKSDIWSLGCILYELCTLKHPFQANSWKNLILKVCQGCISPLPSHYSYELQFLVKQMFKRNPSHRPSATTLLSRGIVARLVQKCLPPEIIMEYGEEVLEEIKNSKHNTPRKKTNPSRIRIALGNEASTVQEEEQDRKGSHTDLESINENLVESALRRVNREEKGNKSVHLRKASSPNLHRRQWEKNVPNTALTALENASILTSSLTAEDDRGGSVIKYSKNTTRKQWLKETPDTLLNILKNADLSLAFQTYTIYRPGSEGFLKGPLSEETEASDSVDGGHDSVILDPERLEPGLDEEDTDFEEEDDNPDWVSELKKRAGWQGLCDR
Particulars: NEK3(h), read-out: Inhibition rate. Put shortly: as §1

The target of assay [4] is T4, 380 human recombinant protein kinases (Homo sapiens, UniProt Q8IU85).
T4 construct: purchased Eurofins (Celle Lévescault)
Particulars: CaMKIδ(h), read-out: Inhibition rate. Put shortly: as §1

Assay [5] addresses T5, 380 human recombinant protein kinases (Homo sapiens, UniProt Q9BQI3).
T5 construct: purchased Eurofins (Celle Lévescault)
Particulars: HRI(h), read-out: Inhibition rate. An outline of the steps: as §1

In assay [6] the target is T6, 380 human recombinant protein kinases (Homo sapiens, UniProt Q9UBE8).
T6 construct: purchased Eurofins (Celle Lévescault)
T6 sequence (Q9UBE8 1-527): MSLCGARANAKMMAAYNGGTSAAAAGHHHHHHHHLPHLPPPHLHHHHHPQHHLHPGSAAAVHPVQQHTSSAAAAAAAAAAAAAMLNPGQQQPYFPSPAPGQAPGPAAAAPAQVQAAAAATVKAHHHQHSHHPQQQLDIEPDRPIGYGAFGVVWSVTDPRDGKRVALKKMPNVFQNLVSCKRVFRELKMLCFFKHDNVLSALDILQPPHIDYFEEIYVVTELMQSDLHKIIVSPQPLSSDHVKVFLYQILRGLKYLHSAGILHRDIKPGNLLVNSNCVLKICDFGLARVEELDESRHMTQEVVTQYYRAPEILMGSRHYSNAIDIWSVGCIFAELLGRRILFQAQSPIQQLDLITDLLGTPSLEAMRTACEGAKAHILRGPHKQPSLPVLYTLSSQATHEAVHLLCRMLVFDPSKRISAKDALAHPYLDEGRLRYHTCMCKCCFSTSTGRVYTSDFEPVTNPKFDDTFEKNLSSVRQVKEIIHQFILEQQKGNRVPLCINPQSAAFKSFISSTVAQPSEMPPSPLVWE
Particulars: NLK(h), read-out: Inhibition rate. Put shortly: as §1

The target of assay [7] is T7, 380 human recombinant protein kinases (Homo sapiens, UniProt P09619).
T7 construct: purchased Eurofins (Celle Lévescault)
Particulars: PDGFRβ(h), read-out: Inhibition rate. Put shortly: as §1

T5 sequence (Q9BQI3 whole entry): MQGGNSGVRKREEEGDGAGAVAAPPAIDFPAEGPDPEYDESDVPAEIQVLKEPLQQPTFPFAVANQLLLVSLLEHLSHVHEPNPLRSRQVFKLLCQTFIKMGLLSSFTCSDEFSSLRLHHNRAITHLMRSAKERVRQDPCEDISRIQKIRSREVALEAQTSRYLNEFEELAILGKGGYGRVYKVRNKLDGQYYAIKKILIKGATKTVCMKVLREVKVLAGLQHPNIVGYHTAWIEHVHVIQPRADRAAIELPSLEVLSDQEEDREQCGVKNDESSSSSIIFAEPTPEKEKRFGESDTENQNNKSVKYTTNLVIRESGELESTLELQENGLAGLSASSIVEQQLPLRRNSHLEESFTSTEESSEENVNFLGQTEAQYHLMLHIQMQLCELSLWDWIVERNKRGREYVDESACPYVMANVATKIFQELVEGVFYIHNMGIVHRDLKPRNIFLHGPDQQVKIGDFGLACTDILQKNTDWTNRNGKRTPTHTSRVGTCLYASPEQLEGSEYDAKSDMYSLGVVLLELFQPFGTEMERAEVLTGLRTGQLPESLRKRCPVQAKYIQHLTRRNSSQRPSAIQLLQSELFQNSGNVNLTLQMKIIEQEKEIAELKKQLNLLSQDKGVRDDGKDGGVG
T4 sequence (Q8IU85 whole entry): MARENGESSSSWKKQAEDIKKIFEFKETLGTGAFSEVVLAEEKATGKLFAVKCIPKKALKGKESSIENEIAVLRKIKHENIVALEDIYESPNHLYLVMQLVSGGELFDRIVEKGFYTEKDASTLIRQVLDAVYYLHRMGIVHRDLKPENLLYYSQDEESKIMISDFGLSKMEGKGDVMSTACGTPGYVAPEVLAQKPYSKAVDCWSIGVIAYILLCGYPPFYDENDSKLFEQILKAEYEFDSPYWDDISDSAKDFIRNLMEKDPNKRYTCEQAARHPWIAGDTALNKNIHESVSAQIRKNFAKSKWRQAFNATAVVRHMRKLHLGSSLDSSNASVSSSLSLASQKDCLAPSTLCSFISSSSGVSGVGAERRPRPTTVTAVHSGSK
T7 sequence (P09619 33-1106): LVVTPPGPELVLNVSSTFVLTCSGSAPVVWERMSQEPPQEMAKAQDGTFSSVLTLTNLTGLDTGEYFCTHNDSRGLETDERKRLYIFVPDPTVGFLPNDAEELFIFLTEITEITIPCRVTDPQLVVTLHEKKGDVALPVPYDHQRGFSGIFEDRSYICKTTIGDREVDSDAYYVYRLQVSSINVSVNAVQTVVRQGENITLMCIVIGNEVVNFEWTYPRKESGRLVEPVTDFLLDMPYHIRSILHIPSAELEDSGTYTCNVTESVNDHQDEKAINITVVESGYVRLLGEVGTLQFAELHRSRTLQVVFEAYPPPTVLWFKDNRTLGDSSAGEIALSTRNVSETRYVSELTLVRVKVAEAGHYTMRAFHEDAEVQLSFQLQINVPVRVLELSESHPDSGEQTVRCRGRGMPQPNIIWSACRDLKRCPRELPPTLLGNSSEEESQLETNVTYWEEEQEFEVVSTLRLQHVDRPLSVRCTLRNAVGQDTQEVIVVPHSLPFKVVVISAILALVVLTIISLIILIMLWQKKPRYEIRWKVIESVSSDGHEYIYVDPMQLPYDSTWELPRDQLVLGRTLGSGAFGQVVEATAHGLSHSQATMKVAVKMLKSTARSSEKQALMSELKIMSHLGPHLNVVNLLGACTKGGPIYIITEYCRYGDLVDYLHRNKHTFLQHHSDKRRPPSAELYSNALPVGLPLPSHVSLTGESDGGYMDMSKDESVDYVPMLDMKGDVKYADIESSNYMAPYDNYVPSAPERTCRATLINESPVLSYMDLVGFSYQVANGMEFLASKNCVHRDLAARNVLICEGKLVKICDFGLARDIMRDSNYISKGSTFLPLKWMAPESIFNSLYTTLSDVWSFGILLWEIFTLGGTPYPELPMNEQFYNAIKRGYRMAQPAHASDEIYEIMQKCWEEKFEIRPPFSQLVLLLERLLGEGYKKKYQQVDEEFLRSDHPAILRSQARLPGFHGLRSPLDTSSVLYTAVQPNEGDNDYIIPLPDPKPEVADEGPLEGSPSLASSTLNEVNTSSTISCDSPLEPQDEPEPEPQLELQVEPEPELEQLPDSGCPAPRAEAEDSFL
T2 sequence (O00238 14-502): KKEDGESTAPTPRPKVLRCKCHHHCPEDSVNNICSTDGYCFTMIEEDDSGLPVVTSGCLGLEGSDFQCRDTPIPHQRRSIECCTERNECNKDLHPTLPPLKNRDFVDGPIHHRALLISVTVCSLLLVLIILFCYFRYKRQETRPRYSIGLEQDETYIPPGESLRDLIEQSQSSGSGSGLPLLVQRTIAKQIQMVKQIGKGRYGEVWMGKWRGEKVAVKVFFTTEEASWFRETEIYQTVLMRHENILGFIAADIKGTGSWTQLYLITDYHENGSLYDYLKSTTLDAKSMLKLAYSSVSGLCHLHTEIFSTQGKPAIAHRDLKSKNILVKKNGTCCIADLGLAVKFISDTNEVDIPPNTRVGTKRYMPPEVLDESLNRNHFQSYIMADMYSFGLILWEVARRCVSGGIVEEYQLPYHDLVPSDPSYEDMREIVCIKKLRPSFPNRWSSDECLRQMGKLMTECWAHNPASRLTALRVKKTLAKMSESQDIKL

Take `C=CC(=O)Nc1cc(-c2cc(-c3cc4c([nH]3)CCNC4=O)ccn2)ccc1OC(F)(F)F` [compound 11]: the inhibition at 0.01 µM is 13% in assay [1] (10 nM); -13% in assay [2] (10 nM); -6% in assay [3] (10 nM); -3% in assay [4] (10 nM); -3% in assay [5] (10 nM); 6% in assay [6] (10 nM). Besides, the inhibition at 0.01 µM in assay [7] (10 nM) is 0%. For the same compound, the inhibition at 0.1 µM in assay [1] (100 nM) is 41%; in assay [2] (100 nM) it was 4%; in assay [3] (100 nM), 0%; in assay [4] (100 nM), -6%; in assay [5] (100 nM) it was 4%; in assay [6] (100 nM) it was 16%. In assay [7] (100 nM), the inhibition at 0.1 µM is -16%. The inhibition at 1 µM in assay [1] (1000 nM) is 82%; in assay [2] (1000 nM), 6%; in assay [3] (1000 nM), -1%; in assay [4] (1000 nM), 1%; in assay [5] (1000 nM) it was 7%; in assay [6] (1000 nM), 42%. Besides, in assay [7] (1000 nM), the inhibition at 1 µM was -11%.
